Results on twelve molecules are retold here after patent US20260085067A1, “CYCLIC SULFONAMIDE RIBONUCLEOTIDE REDUCTASE (RNR) INHIBITORS AND USES THEREOF” (Boundless Bio, Inc., priority 2022, published 2026).

One series addresses T1, RNR (RNR1:RNR2 1:1) (Homo sapiens, UniProt P23921).
T1 sequence (P23921 1-792): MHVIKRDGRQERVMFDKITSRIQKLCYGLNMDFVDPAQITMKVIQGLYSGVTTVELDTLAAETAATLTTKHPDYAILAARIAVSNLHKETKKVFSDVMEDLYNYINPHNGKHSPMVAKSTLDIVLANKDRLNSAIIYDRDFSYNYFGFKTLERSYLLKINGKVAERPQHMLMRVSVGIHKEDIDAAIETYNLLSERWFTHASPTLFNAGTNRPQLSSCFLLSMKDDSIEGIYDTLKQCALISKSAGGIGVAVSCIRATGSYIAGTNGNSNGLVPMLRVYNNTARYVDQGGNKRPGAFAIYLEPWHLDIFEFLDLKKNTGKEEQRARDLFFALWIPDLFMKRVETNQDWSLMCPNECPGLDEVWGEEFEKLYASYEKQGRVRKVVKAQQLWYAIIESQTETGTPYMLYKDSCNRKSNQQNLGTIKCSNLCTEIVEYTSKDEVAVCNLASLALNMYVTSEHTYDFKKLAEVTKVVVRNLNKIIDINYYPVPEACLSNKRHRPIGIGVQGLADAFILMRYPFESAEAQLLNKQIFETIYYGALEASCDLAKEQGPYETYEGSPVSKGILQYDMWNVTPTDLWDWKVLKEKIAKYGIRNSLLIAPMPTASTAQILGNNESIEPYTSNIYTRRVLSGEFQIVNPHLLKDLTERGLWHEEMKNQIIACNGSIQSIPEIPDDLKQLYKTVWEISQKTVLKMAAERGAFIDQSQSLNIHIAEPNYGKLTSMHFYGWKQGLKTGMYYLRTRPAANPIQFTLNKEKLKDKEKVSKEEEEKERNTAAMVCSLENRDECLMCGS
The experiment in a line: RNR enzyme activity, rapid-fire mass spectrometry (RF/MS) assay. The series is classed as biochemical. Conditions: [RNR] 50 nM, 1:1 RNR1:RNR2; CDP 5 μM; ATP 1 mM; 37° C., 45 min; compounds screened up to 50 μM. In outline: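 Human RNR (50 nM final, RNR1:RNR2 1:1) pre-incubated 15 min at room temperature, then reacted 45 min at 37 °C with 5 μM CDP and 1 mM ATP, no NADPH. Reaction quenched with 6% HCOOH; product quantified by rapid-fire mass spectrometry.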

Series [1] deals with pCHK1 (S345) in Colo320 DM cells. The series can be described thus: Alphalisa assay, detection of pCHK1 (S345) in Colo320 DM cells. The series is classed as cell-based, human. The settings on record: Homo sapiens, COLO 320DM, compound overnight (approximately 16 hours). In outline: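 Phospho-CHK1 (S345) read by AlphaLisa SureFire in lysates of human colorectal Colo320 DM cells. Compound treatment ran overnight (~16 h, 37 °C, DMSO <0.5%) on cells seeded the day before.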

For a further series, the system named is human hepatocytes. The series can be described thus: Human hepatocyte stability assay. The series is classed as in vitro ADME. Conditions: 0.5×10^6 viable cells/ml, time points 0.5 and 60 minutes. On the procedure:
1. 10 mM stock solutions of test compounds and positive control were prepared in DMSO. Thawing medium and supplement incubation medium (serum-free) were placed in a 37° C. water bath for at least 15 minutes prior to use.
2. Stock solutions were diluted to 100 μM by combining 198 μL acetonitrile and 2 μL of 10 mM stock solution. Verapamil was use as positive control in the assay.
3. Vials of cryopreserved human hepatocytes were removed from storage, while ensuring that vials remain at cryogenic temperatures. The pressure was removed by loosening and re-tightening the cap. The vials were thawed in a 37° C. water bath with gentle shaking. Vials remained in the water bath until all ice crystals had dissolved and were no longer visible. Vials were sprayed with 70% ethanol before being transferred to a biosafety cabinet. Then the contents were poured into a 50 mL thawing medium conical tube. Vials were centrifuged at 100 g for 10 minutes at room temperature. Thawing medium was aspirated and hepatocytes were re-suspended with serum-free incubation medium to yield ˜1.5×10^6 cells/mL.
4. Cell viability and density were counted using Cellometer® Vision, and then cells were diluted with serum-free incubation medium to a working cell density of 0.5×10^6 viable cells/ml.
5. Aliquots of 198 μL hepatocytes were dispensed into each well of a 96-well non-coated plate. The plate was placed in the incubator on an orbital shaker at 500 rpm for approximately 10 minutes.
6. Aliquots of 2 μL of the 100 μM test compounds or verapamil were added into respective wells of the non-coated 96-well plate to start the reaction. This assay was performed in duplicate. The plate was incubated in the incubator on an orbital shaker at 500 rpm for the designed time points.
7.25 μL of contents were transferred and mixed with 5 volumes (125 μL) of cold acetonitrile with IS (100 nM alprazolam, 200 nM caffeine, 100 nM labetalol and 100 nM tolbutamide) to terminate the reaction at time points of 0.5 and 60 minutes. Samples were centrifuged for 30 minutes at 3,220 g. Then transfer 100 μL of the supernatant to new 96-well plates for analysis. Add 100 μL of distilled water to each sample and mix for analysis by LC-MS/MS.
All calculations were carried out using Microsoft Excel. Peak areas were determined from extracted ion chromatograms. The in vitro half-life (tin) of the parent compound was determined by regression analysis of the percent parent disappearance vs. time curve. • a. The in vitro half-life (in vitro tin) was determined from the slope value: in vitro t1/2=0.693/k • b. Conversion of the in vitro tin (in min) into the in vitro intrinsic clearance (in vitro CLint, in μL/min/10^6 cells) was done using the following equation: […]

For the molecule `Cc1ccc(F)c([C@@H](C)[C@@H](c2n[nH]c(=O)o2)N2CN(C)c3cc(Cl)ccc3S2(=O)=O)c1C` [Example 1, 5-((1S,2R)-1-(6-chloro-4-methyl-1,1-dioxido-3,4-dihydro-2H-benzo[e][1,2,4]thiadiazin-2-yl)-2-(6-fluoro-2,3-dimethylphenyl)propyl)-1,3,4-oxadiazol-2(3H)-one], the IC50 (commonly the concentration at which inhibition is half-maximal) at RNR (RNR1:RNR2 1:1) was under 0.02 µM; in series [1], at most 1 µM. Further, the Clhep entry with human hepatocytes was “A (0 ml/min/kg ≤ Clhep ≤ 10 ml/min/kg)”.

For `Cc1ccc(F)c([C@@H](C)[C@@H](c2n[nH]c(=O)o2)N2CCOc3cc(Cl)ccc3S2(=O)=O)c1C` [Example 2, 5-((1S,2R)-1-(7-chloro-1,1-dioxido-3,4-dihydro-2H-benzo[b][1,4,5]oxathiazepin-2-yl)-2-(6-fluoro-2,3-dimethylphenyl)propyl)-1,3,4-oxadiazol-2(3H)-one], the IC50 against RNR (RNR1:RNR2 1:1) was under 0.02 µM; in series [1], 1 to 5 µM. Further, the Clhep result in the series with human hepatocytes was “A (0 ml/min/kg ≤ Clhep ≤ 10 ml/min/kg)”.

In the case of `Cc1ccc(F)c([C@@H](C)[C@@H](c2n[nH]c(=O)o2)N2CN(C)c3nc(Cl)ccc3S2(=O)=O)c1C` [Example 3, 5-((1S,2R)-1-(6-chloro-4-methyl-1,1-dioxido-3,4-dihydro-2H-pyrido[2,3-e][1,2,4]thiadiazin-2-yl)-2-(6-fluoro-2,3-dimethylphenyl)propyl)-1,3,4-oxadiazol-2 (3H)-one], the IC50 was under 0.02 µM against RNR (RNR1:RNR2 1:1) and at most 1 µM in series [1]. Further, in the series with human hepatocytes, the Clhep result is listed as “B (10 ml/min/kg < Clhep ≤ 20 ml/min/kg)”.

`Cc1ccc(F)c([C@@H](C)[C@@H](c2n[nH]c(=O)o2)N2CNc3cc(Cl)ccc3S2(=O)=O)c1C` [Example 8, 5-((1S,2R)-1-(6-chloro-1,1-dioxido-3,4-dihydro-2H-benzo[e][1,2,4]thiadiazin-2-yl)-2-(6-fluoro-2,3-dimethylphenyl)propyl)-1,3,4-oxadiazol-2 (3H)-one]: the figures for the IC50 (against RNR (RNR1:RNR2 1:1); in series [1]) were 0.02 to 0.1 µM and at most 1 µM, respectively. In addition, the Clhep result in the series on human hepatocytes is “B (10 ml/min/kg < Clhep ≤ 20 ml/min/kg)”.

With `COCCCN1CN([C@H](c2n[nH]c(=O)o2)[C@H](C)c2c(F)ccc(C)c2C)S(=O)(=O)c2ccc(Cl)nc21` [Example 48, 5-((1S,2R)-1-(6-chloro-4-(3-methoxypropyl)-1,1-dioxido-3,4-dihydro-2H-pyrido[2,3-e][1,2,4]thiadiazin-2-yl)-2-(6-fluoro-2,3-dimethylphenyl)propyl)-1,3,4-oxadiazol-2 (3H)-one], the IC50 at RNR (RNR1:RNR2 1:1) was under 0.02 µM; in series [1], at most 1 µM. Besides, the Clhep result in the series with human hepatocytes is on record as “A (0 ml/min/kg ≤ Clhep ≤ 10 ml/min/kg)”.

`Cc1ccc(F)c([C@@H](C)[C@@H](c2n[nH]c(=O)o2)N2CN(CCO)c3cc(Cl)ccc3S2(=O)=O)c1C` [Example 50, 5-((1S,2R)-1-(6-chloro-4-(2-hydroxyethyl)-1,1-dioxido-3,4-dihydro-2H-benzo[e][1,2,4]thiadiazin-2-yl)-2-(6-fluoro-2,3-dimethylphenyl)propyl)-1,3,4-oxadiazol-2 (3H)-one]: the IC50 on RNR (RNR1:RNR2 1:1) was under 0.02 µM; in series [1], at most 1 µM. Moreover, in the series with human hepatocytes, the Clhep result is listed as “A (0 ml/min/kg ≤ Clhep ≤ 10 ml/min/kg)”.

`CC(=O)c1cc(Cl)cc2c1S(=O)(=O)N([C@H](c1n[nH]c(=O)o1)[C@H](C)c1c(F)ccc(C)c1C)CCO2` [Example 60, 5-((1S,2R)-1-(9-acetyl-7-chloro-1,1-dioxido-3,4-dihydro-2H-benzo[b][1,4,5]oxathiazepin-2-yl)-2-(6-fluoro-2,3-dimethylphenyl)propyl)-1,3,4-oxadiazol-2 (3H)-one]: the IC50 is under 0.02 µM on RNR (RNR1:RNR2 1:1) and at most 1 µM in series [1]. Moreover, in the series on human hepatocytes, the Clhep entry is listed as “B (10 ml/min/kg < Clhep ≤ 20 ml/min/kg)”.

Regarding `CC(=O)c1cc(Cl)cc2c1S(=O)(=O)N([C@H](c1n[nH]c(=O)o1)[C@H](C)c1c(F)ccc(C)c1C)CN2C` [Example 75, 5-((1S,2R)-1-(8-acetyl-6-chloro-4-methyl-1,1-dioxido-3,4-dihydro-2H-benzo[e][1,2,4]thiadiazin-2-yl)-2-(6-fluoro-2,3-dimethylphenyl)propyl)-1,3,4-oxadiazol-2 (3H)-one], the values for the IC50 (against RNR (RNR1:RNR2 1:1); in series [1]) were under 0.02 µM and at most 1 µM, respectively. In addition, in the series with human hepatocytes, the Clhep result is on record as “B (10 ml/min/kg < Clhep ≤ 20 ml/min/kg)”.

Consider `Cc1ccc(F)c([C@@H](C)[C@@H](c2n[nH]c(=O)o2)N2CN([C@H](C)CO)c3cc(Cl)ccc3S2(=O)=O)c1C` [Example 117, 5-((1S,2R)-1-(6-chloro-4-((R)-1-hydroxypropan-2-yl)-1,1-dioxido-3,4-dihydro-2H-benzo[e][1,2,4]thiadiazin-2-yl)-2-(6-fluoro-2,3-dimethylphenyl)propyl)-1,3,4-oxadiazol-2 (3H)-one], for which the IC50 in series [1] lay within 1 to 5 µM. Besides, in the series with human hepatocytes, the Clhep entry is reported as “B (10 ml/min/kg < Clhep ≤ 20 ml/min/kg)”.

In series [1], `Cc1ccc(F)c([C@@H](C)[C@@H](c2n[nH]c(=O)o2)N2CN(C3CC(=O)C3)c3cc(Cl)ccc3S2(=O)=O)c1C` [Example 118, 5-((1S,2R)-1-(6-chloro-1,1-dioxido-4-(3-oxocyclobutyl)-3,4-dihydro-2H-benzo[e][1,2,4]thiadiazin-2-yl)-2-(6-fluoro-2,3-dimethylphenyl)propyl)-1,3,4-oxadiazol-2 (3H)-one] came in with an IC50 of at most 1 µM. For the same molecule, in the series on human hepatocytes, the Clhep entry was “B (10 ml/min/kg < Clhep ≤ 20 ml/min/kg)”.

`Cc1ccc(F)c([C@@H](C)[C@@H](c2n[nH]c(=O)o2)N2CN(O)c3cc(Cl)ccc3S2(=O)=O)c1C` [Example 120, 5-((1S,2R)-1-(6-chloro-4-hydroxy-1,1-dioxido-3,4-dihydro-2H-benzo[e][1,2,4]thiadiazin-2-yl)-2-(6-fluoro-2,3-dimethylphenyl)propyl)-1,3,4-oxadiazol-2 (3H)-one] registered an IC50 in series [1] of 1 to 5 µM. In addition, in the series with human hepatocytes, the Clhep result is “B (10 ml/min/kg < Clhep ≤ 20 ml/min/kg)”.

Regarding `Cc1ccc(F)c([C@@H](C)[C@@H](c2n[nH]c(=O)o2)N2CN([C@@H](C)CO)c3cc(Cl)ccc3S2(=O)=O)c1C` [Example 121, 5-((1S,2R)-1-(6-chloro-4-((S)-1-hydroxypropan-2-yl)-1,1-dioxido-3,4-dihydro-2H-benzo[e][1,2,4]thiadiazin-2-yl)-2-(6-fluoro-2,3-dimethylphenyl)propyl)-1,3,4-oxadiazol-2 (3H)-one], the IC50 in series [1] was at most 1 µM. Besides, in the series on human hepatocytes, the Clhep entry is “B (10 ml/min/kg < Clhep ≤ 20 ml/min/kg)”.
